Laboratory results from patent US20100168100A1, “QUINOLINE DERIVATIVES AS P13 KINASE INHIBITORS” (SMITHKLINE BEECHAM CORPORATION, priority 2007, published 2010).

Target: T1, PI3Kα (Homo sapiens, UniProt P42336)
T1 construct: His
Assay: PI3K Alpha Leadseeker SPA Assay
Type: biochemical
Conditions: in at least one experimental run; read-out: IC50 against PI3Kα
Method: PI3K Alpha Leadseeker SPA Assay
Compounds of the present invention were tested according to the following assays and found as inhibitors of PI3 kinases, particularly PI3Kα. The exemplified compounds were tested and found active against PI3Kα. The IC50's ranged from about 1 nM to 10 μM.
SPA imaging beads are microspheres containing scintillant which emit light in the red region of the visible spectrum. As a result, these beads are ideally suited to use with a CCD imager such as the Viewlux. The Leadseeker beads used in this system are polystyrene beads that have been coupled with polyethyleneimine. When added to the assay mixture, the beads absorb both the substrate (PIP2) and product (PIP3). Adsorbed P^33-PIP3 will cause an increase in signal, measured as ADUs (analog to digital units). This protocol details the use of the PEI-PS Leadseeker beads for assays using His-p110/p85 PI3K alpha.
Solid compounds are typically plated with 0.1 μl of 100% DMSO in all wells (except column 6 and 18) of a 384-well, flat bottom, low volume plate (Greiner 784075). The compounds are serially diluted (3-fold in 100% DMSO) across the plate from column 1 to column 12 and column 13 to column 24 and leave column 6 and 18 containing only DMSO to yield 11 concentrations for each test compound.
The assay buffer contains MOPS (pH 6.5), CHAPS, and DTT. PI3K alpha and PIP2 (L-alpha-D-myo-Phosphatidylinositol 4,5-bisphosphate [PI(4,5)P2]3-O-phospho linked, D(+)-sn-1,2-di-O-octanoylglyceryl, CellSignals #901) are mixed and incubated in the plate with compound for 30 min prior to starting the reaction with the addition of P^33-ATP and MgCl2 (reagents added using Zoom). Enzyme-free wells (column 18) are typically done to determine the low control. PEI-PS Leadseeker beads in PBS/EDTA/CHAPS are added (by Multidrop) to quench the reaction, and the plates are allowed to incubate for at least one hour (typically overnight) before centrifugation. The signal is determined using a Viewlux detector and is then imported into curve fitting software (Activity Base) for construction of concentration response curves. The percent inhibition of activity is calculated relative to high controls (C1, 0.1 μl DMSO in column 6, rows A-P)) and low controls (C2, 5 μl of 40 uM PIP2 in buffer in column 18, rows A-P) using, 100*(1-(U1-C2)/(C1-C2)). The concentration of test compound yielding 50% inhibition is determined using the equation, y=((Vmax*x)/(K+x))+Y2, where “K” is equal to the IC50. The IC50 values are converted to pIC50 values, i.e., −log IC50 in Molar concentration.

T1 sequence (P42336 whole entry): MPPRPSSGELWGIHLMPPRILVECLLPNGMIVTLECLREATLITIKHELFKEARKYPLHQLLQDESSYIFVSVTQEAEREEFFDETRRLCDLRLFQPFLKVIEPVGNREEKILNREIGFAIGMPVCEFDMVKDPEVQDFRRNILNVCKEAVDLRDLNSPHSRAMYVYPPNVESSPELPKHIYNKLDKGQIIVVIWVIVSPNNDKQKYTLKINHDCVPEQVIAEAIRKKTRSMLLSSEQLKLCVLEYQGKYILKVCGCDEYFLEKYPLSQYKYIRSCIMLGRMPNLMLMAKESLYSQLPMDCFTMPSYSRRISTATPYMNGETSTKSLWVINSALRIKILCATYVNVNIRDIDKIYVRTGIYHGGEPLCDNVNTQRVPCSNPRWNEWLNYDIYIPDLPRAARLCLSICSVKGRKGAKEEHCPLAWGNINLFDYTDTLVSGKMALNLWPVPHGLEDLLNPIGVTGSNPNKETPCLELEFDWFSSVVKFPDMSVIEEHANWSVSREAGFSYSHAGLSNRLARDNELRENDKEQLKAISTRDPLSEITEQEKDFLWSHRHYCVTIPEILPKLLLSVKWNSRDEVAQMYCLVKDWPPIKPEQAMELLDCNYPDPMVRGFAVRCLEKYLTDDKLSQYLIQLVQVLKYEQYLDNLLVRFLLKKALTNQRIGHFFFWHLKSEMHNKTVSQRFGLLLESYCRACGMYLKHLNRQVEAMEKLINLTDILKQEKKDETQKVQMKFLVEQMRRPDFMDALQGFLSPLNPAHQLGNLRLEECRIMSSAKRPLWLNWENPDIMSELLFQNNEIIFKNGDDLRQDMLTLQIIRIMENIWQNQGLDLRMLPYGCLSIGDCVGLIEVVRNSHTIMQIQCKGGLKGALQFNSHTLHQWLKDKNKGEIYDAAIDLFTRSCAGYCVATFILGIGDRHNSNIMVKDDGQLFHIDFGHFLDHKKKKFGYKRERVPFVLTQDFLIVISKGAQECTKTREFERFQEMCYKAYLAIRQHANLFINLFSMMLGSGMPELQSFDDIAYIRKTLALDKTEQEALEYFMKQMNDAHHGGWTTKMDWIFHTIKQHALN
T1 sequence (P27986 whole entry partner): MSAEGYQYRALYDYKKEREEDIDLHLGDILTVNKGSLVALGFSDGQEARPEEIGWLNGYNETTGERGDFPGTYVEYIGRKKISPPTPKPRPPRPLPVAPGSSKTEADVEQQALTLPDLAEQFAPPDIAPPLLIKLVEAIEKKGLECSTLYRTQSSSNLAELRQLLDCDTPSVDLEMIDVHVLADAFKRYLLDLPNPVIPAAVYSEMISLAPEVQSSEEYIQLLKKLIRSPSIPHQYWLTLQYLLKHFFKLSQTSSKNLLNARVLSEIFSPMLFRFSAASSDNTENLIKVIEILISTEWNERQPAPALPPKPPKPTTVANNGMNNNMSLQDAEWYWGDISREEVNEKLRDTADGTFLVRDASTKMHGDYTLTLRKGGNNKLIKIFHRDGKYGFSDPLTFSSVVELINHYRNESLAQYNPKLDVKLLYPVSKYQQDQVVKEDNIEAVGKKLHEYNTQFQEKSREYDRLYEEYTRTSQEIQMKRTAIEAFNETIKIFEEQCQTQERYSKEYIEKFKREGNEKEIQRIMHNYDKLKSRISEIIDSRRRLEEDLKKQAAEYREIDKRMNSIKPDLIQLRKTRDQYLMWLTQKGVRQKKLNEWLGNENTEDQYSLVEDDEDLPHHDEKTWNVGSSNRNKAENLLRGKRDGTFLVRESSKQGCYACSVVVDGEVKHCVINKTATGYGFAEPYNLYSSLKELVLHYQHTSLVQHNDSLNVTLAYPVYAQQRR

Row | SMILES | IC50 [nM]
1 | Cc1ccccc1S(=O)(=O)Nc1cc(-c2ccc3nccc(-c4ccncc4)c3c2)cnc1Cl [Example 252] | 0.8
2 | NC(=O)Cn1cc(-c2ccnc3ccc(-c4cncc(S(=O)(=O)Nc5ccc(F)cc5F)c4)cc23)cn1 [Example 263] | 7.9
3 | CC1=Nc2ccc(-c3ccc4nccc(-c5ccncc5)c4c3)cc2S(=O)(=O)N1 [Example 154] | 316
4 | c1cc(-c2ccnc3ccc(-c4ccc5[nH]ncc5c4)cc23)ccn1 [Example 156] | 79
5 | c1cc(-c2ccnc3ccc(-c4nc5ncncc5[nH]4)cc23)ccn1 [Example 224] | 1000
6 | O=S(=O)(Nc1cc(-c2ccc3nccc(-c4ccncc4)c3c2)c[n+]([O-])c1Cl)c1ccccc1 [Example 249] | 1.6
7 | COc1ncc(-c2ccc3nccc(C4CCCC4)c3c2)cc1NS(=O)(=O)c1ccccc1 [Example 289] | 2.5

Target: CK2 protein kinase (Homo sapiens, UniProt P68400)
Sequence (P68400 whole entry): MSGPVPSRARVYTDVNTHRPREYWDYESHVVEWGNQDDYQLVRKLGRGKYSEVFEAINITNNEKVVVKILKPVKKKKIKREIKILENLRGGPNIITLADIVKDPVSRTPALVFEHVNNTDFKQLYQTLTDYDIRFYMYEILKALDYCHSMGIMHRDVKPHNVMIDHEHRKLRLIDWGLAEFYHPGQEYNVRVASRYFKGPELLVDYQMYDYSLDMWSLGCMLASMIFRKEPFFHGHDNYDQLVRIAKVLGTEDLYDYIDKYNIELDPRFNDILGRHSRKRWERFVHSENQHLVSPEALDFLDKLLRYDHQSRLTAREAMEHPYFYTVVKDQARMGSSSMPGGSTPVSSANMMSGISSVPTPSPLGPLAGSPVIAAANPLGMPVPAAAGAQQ
Assay: not given
Conditions: cited from earlier work

Row | SMILES | IC50 [nM]
8 | O=c1cc(N2CCOCC2)oc2c(-c3ccccc3)cccc12 [LY294002] | 5000 to 10000
